Source: patent publication US7332489B2, “Methods and compositions of novel triazine compounds” (Reddy US Therapeutics, Inc., priority 2003, dated 2008)
pIC50: −log10 of the molar value. Read-outs that look alike come from different tables or passages of the source.

How the values were obtained:
[1] = system: cells; assay: Cytotoxicity/Lactate Dehydrogenase assay; assay type: cell-based; conditions: toxic or cause cell death; concentrations (uM) given
Description: An appropriate number of cells are plated in four 96-well plates, one plate for “day 0” and three plates for days 1-3. Cells are treated with at least one compound of the present invention in varying concentrations with and without the apoptosis inducer cisplatin (2 μM) (“+cis” or “-cis”). Unteated cells are also assayed with and without cisplatin. After transfection, the plates are incubated at 37° C. overnight.
An appropriate number of cells are plated in four 96-well plates, one plate for “day 0” and three plates for days 1-3. Cells are treated with at least one compound of the present invention in varying concentrations. The negative control cells have normal media conditions, a duplicate set of wells is treated with the composition in which the compound is provided, but there is no added compound and the positive control cells are treated with the apoptosis inducer cisplatin (2 μM). All of the cells are transfected with a vector having a promoter that is responsive to apoptosis conditions. When apoptosis occurs, the promoter is turned on and the lactic dehydrogenase gene is activated and the enzyme protein is made and active. Activity is easily detected with a color change. After transfection, the plates are incubated at 37° C. overnight.
About 8 mls of warmed alpha MEM LDH lysis buffer (2% Triton X100) and about 8 mls of culture media (1/2 dilution) are combined. Two 96-well v-bottom plates are prepared, one labeled “lysis” and one labeled “supernatant.” To lyse the cells, about 200 μl Alpha MEM lysis buffer (diluted 1/2) is added to one test plate from which the supernatant has been removed and added to the plate labeled supernatant. After mixing, about 200 μl of lysed cells are transferred to the lysis plate. Both the lysis and supernatant plates are centrifuged at about 1600 rpm for about 10 min. After centrifugation, about 100 μl of both the supernatant or lysate is transferred to corresponding 96-well flat-bottomed plates.
The assay for cytotoxicity uses the Cytotoxicity Detection Kit (LDH) from Roche Diagnostics Corp. (Indianapolis, Ind.). Using the directions provided, the dye solution is mixed and added each well of the lysate and supernatant plate and incubated for up to 20-25 min at 15-25° C. in the dark.

[2] = system: Human aortic smooth muscle cells; assay: Smooth muscle cell proliferation assay / anti-proliferation assay (perlecan); conditions: for pIC50: Homo sapiens
Description: Human aortic smooth muscle cells (Clonetics) were used. Cells were grown in basal medium containing 5% fetal bovine serum supplemented with growth factors, basic fibroblast growth factor, epidermal growth factor and insulin. […] The cells were then serum starved for 24 h to induce quiescence. Fresh growth medium containing no compound or 10 μM compound was then added and further incubated for 24 h. Cell number was determined by using a cell proliferation assay kit (Celltiter96 AQueous from Promega).

[3] = system: TNF-α induced IL-6; assay: TNF-α-induced IL-6 production determined by IL-6 ELISA; assay type: cell-based
Procedure, shortened: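 Human aortic endothelial cells grown to ≥90% confluence, then treated with compounds and stimuli in serum-free medium with 0.2% albumin. Secreted IL-6 in collected media measured by sandwich ELISA (2 ug/ml capture, 200 ng/ml biotinylated detection antibody, streptavidin-HRP), read at 450 nm.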

Structure (SMILES): CCN1CCCC1CNc1nc(Nc2ccc(Cl)c(Cl)c2)nc(NC2CCCCCC2)n1 (stereo not drawn) [Compound 7, N^2-cycloheptyl-N^4-(3,4-dichlorophenyl)-N^6-[(1-ethyl-2-pyrrolidinyl)methyl]-1,3,5-triazine-2,4,6-triamine]
- Toxicity [1]: toxic

Structure (SMILES): CCOC(=O)c1ccc(Nc2nc(NCC3CCCN3CC)nc(NC3CCCCCC3)n2)cc1 (stereo not drawn) [Compound 14, Ethyl 4-[(4-(cycloheptylamino)-6-{[(1-ethyl-2-pyrrolidinyl)methyl]amino}-1,3,5-triazin-2-yl)-amino]benzoate]
- Toxicity [1]: toxic

Structure (SMILES): CCN1CCCC1CNc1nc(Nc2ccc(Br)cc2)nc(NC2CCCCCC2)n1 (stereo not drawn) [Compound 13, N^2-(4-bromophenyl)-N^4-cycloheptyl-N^6-[(1-ethyl-2-pyrrolidinyl)methyl]-1,3,5-triazine-2,4,6-triamine]
- Toxicity [1]: toxic

Structure (SMILES): CCN1CCCC1CNc1nc(Nc2ccc(OC(F)(F)F)cc2)nc(NC2CCCCCC2)n1 (stereo not drawn) [Compound 9, N^2-cycloheptyl-N^4-[(1-ethyl-2-pyrrolidinyl)methyl]-N^6-[4-(trifluoromethoxy)phenyl]-1,3,5-triazine-2,4,6-triamine]
- Toxicity [1]: toxic

Structure (SMILES): CCN1CCCC1CNc1nc(Nc2cccc3cccnc23)nc(NC2CCCCCC2)n1 (stereo not drawn) [Compound 5, N^2-cycloheptyl-N^4-[(1-ethyl-2-pyrrolidinyl)methyl]-N^6-(8-quinolinyl)-1,3,5-triazine-2,4,6-triamine]
- Toxicity [1]: toxic

Structure (SMILES): CCN1CCCC1CNc1nc(Nc2ccccc2Cl)nc(NC2CCCCCC2)n1 (stereo not drawn) [Compound 21, N^2-(2-chlorophenyl)-N^4-cycloheptyl-N^6-[(1-ethyl-2-pyrrolidinyl)methyl]-1,3,5-triazine-2,4,6-triamine]
- Toxicity [1]: toxic

Structure (SMILES): CCN1CCCC1CNc1nc(NC2CCCCCC2)nc(N(C)c2ccc(OC(F)(F)F)cc2)n1 (stereo not drawn) [Compound 47, N^2-cycloheptyl-N^4-[(1-ethyl-2-pyrrolidinyl)methyl]-N^6-methyl-N^6-[4-(trifluoromethoxy)phenyl]-1,3,5-triazine-2,4,6-triamine]
- Toxicity [1]: toxic

Structure (SMILES): CCN1CCCC1CNc1nc(Nc2ccc(OC)c(Cl)c2)nc(NC2CCCCCC2)n1 (stereo not drawn) [Compound 136, N^2-(3-chloro-4-methoxy-phenyl)-N^4-cycloheptyl-N^6-(1-ethyl-pyrrolidin-2-ylmethyl)-1,3,5-triazine-2,4,6-triamine]
- Toxicity [1]: Nothing but celldebris at 3 uM verytoxic

Structure (SMILES): COc1ccc(Nc2nc(OCC3CCCCC3)nc(N(C)C3CCN(C)CC3)n2)cc1Cl [Compound 119, N-(3-Chloro-4-methoxy-phenyl)-6-cyclohexylmethoxy-N′-methyl-N′-(1-methyl-piperidin-4-yl)-[1,3,5]triazine-2,4-diamine]
- Toxicity [1]: toxic

Structure (SMILES): CCc1occc(=O)c1Oc1nc(Nc2ccc(OC)c(Cl)c2)nc(NC2CCCCCC2)n1
- Proliferation Data (result in words) ([2]; screens at 5 & 10 uM): Not active at 5 & 10 uM
- Inflammation Data, cell death at 10 uM [3]: 20%

Structure (SMILES): CCN1CCCC1CNc1nc(Nc2ccc(Oc3ccccc3)cc2)nc(NC2CCCCCC2)n1 (stereo not drawn) [Compound 36, N^2-cycloheptyl-N^4-[(1-ethyl-2-pyrrolidinyl)methyl]-N^6-(4-phenoxyphenyl)-1,3,5-triazine-2,4,6-triamine]
- Toxicity [1]: toxic

Structure (SMILES): COc1ccc(Nc2nc(NC3CCCCCC3)nc(NC3CCN(Cc4ccccc4)CC3)n2)cc1F
- Proliferation Data, cell morphology (rounding, blunting, morphology change) [2]: cell bluntingat 3 uM and rounding at 5 uM
- Inflammation Data, cell death at 5 uM [3]: 25%
- Inflammation Data, cell death at 10 uM [3]: total cell death

Structure (SMILES): CCN1CCC[C@H]1CNc1nc(Nc2ccc(OC)c(F)c2)nc(NC2CCCCCC2)n1 [Compound 139, N^2-cycloheptyl-N^4-((S)-1-ethyl-pyrrolidin-2-ylmethyl)-N^6-(3-fluoro-4-methoxyphenyl)-1,3,5-triazine-2,4,6-triamine]
- pIC50 ([2]; read-out: Activity (note 1), anti-proliferation assay (perlecan)): 5.15 to 5.52
- pIC50 ([2]; read-out: Avg IC-50, anti-proliferation assay (perlecan)): 5.30 to 5.40
- activity at 10 µM ([3]; Homo sapiens, 24 h, Table 5, first part, class = % of control IL6 production, read-out: Inhibition of TNF-induced IL6 production): 0 to 25%

Structure (SMILES): COc1ccc(Nc2nc(NC3CCCCCC3)nc(NC3CCN(Cc4ccccc4)CC3)n2)cc1Cl [drawing 1615]
- Proliferation Data, cell morphology (rounding, blunting, morphology change) [2]: cell blunting at 1 uMand rounding at 5 uM
- Inflammation Data, cell death at 5 uM [3]: 20%
- Inflammation Data, cell death at 10 uM [3]: > 50%
